Data on three compounds can be found in patent publication US20230219963A1, “PYRROLO[2,3-D]PYRIMIDINE DERIVATIVES” (Pfizer Inc., priority 2020, published 2023).

Holding throughout (format): biochemical
For assay [1], the target named is JAK2 (Homo sapiens, UniProt O60674). Description: JAK Caliper Enzyme Assay at 1 mM ATP (JAK2). The procedure:
(§1) JAK Caliper Enzyme Assay at 1 mM ATP
(§2) Test article was solubilized in dimethyl sulfoxide (DMSO) to a stock concentration of 30 mM. An 11-point half log dilution series was created in DMSO with a top concentration of 600 μM. […] The compound plates were diluted 1 to 60 resulting in a top final assay compound concentration of 10 μM and a 2% DMSO concentration. Test article and assay controls were added to a 384-well plate. Reaction mixtures contained 20 mM HEPES, pH 7.4, 10 mM magnesium chloride, 0.01% bovine serum albumin (BSA), 0.0005% Tween 20, 1 mM ATP and 1 μM peptide substrate. […] The assays were initiated by the addition of 20 nM JAK1, 1 nM JAK2, 1 nM JAK3 or 1 nM TYK2 enzyme and were incubated at room temperature for three hours for JAK1, 60 minutes for JAK2, 75 minutes for JAK3 or 135 minutes for TYK2. Enzyme concentrations and incubation times were optimized for each new enzyme preps and were modified slightly over time to ensure 20%-30% phosphorylation. The assays were stopped with a final concentration of 10 mM EDTA, 0.1% Coating Reagent and 100 mM HEPES, pH=7.4. The assay plates were placed on a Caliper Life Science Lab Chip 3000 (LC3000) instrument, and each well was sampled using appropriate separation conditions to measure the unphosphorylated and phosphorylated peptide.

For assay [2], the target named is T1, JAK3 (Homo sapiens, UniProt P52333).
T1 sequence (P52333 1-1124): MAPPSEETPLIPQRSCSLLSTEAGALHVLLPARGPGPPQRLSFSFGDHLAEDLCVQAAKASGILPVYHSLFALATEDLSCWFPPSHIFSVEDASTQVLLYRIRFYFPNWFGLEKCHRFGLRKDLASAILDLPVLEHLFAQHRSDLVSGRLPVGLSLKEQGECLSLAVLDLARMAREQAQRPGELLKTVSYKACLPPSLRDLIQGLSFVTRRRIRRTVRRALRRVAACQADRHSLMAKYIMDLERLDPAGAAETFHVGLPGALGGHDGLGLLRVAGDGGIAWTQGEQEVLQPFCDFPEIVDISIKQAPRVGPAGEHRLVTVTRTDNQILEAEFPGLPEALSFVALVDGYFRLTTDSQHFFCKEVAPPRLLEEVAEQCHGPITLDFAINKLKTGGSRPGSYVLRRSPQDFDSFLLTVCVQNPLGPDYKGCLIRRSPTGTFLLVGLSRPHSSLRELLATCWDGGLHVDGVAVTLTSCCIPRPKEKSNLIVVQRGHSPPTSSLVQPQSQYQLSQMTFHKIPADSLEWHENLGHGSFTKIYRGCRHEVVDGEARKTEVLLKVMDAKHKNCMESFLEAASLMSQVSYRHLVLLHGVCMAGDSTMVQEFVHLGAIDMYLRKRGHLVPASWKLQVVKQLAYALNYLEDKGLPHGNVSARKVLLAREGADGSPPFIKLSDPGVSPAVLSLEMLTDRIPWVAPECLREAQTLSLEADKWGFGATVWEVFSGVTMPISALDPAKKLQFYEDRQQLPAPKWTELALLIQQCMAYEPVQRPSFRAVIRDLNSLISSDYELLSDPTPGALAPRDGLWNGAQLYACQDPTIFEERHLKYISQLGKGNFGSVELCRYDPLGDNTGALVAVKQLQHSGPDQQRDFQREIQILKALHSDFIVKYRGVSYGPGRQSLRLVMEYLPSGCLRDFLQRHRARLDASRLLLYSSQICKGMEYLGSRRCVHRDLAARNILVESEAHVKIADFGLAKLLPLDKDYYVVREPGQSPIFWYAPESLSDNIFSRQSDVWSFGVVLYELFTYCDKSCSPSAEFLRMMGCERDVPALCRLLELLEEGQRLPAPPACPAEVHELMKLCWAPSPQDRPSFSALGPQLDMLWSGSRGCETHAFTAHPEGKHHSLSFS
Description: JAK Caliper Enzyme Assay at 1 mM ATP (JAK3). The procedure:
as §1, §2

For assay [3], the target named is TYK2 (Homo sapiens, UniProt P29597). Description: JAK Caliper Enzyme Assay at 1 mM ATP (TYK2). On the procedure: as §1, §2
Chain of TYK2 (P29597 whole entry): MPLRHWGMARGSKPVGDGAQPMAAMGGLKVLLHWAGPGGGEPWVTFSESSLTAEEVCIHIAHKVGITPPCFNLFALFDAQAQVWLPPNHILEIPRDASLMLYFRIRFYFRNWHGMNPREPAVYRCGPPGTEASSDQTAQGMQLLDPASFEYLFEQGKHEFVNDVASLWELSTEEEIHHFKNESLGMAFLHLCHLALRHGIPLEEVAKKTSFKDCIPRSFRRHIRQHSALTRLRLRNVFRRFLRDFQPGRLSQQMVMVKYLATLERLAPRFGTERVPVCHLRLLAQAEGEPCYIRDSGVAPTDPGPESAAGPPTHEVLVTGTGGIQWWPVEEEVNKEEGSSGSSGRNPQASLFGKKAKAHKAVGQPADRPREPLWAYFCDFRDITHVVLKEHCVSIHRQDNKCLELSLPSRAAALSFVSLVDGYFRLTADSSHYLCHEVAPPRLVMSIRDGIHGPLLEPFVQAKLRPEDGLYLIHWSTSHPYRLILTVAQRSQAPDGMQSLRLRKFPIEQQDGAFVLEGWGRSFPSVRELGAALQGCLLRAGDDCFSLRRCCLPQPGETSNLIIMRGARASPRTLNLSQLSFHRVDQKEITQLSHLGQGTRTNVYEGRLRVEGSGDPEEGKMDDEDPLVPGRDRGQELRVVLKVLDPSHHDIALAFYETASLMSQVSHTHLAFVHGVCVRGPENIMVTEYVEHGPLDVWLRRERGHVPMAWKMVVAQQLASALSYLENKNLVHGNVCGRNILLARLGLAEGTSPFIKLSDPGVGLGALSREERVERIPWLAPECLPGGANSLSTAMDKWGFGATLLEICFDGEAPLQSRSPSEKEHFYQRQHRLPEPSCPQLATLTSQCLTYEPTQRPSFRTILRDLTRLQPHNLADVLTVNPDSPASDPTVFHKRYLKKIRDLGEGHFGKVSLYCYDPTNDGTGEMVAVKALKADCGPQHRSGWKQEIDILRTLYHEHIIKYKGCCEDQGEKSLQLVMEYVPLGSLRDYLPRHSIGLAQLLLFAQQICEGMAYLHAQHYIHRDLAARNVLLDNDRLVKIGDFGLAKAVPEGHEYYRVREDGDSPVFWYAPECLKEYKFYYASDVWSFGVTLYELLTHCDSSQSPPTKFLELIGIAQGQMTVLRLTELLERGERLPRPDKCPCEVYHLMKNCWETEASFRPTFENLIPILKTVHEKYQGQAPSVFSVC

Chain of JAK2 (O60674 whole entry): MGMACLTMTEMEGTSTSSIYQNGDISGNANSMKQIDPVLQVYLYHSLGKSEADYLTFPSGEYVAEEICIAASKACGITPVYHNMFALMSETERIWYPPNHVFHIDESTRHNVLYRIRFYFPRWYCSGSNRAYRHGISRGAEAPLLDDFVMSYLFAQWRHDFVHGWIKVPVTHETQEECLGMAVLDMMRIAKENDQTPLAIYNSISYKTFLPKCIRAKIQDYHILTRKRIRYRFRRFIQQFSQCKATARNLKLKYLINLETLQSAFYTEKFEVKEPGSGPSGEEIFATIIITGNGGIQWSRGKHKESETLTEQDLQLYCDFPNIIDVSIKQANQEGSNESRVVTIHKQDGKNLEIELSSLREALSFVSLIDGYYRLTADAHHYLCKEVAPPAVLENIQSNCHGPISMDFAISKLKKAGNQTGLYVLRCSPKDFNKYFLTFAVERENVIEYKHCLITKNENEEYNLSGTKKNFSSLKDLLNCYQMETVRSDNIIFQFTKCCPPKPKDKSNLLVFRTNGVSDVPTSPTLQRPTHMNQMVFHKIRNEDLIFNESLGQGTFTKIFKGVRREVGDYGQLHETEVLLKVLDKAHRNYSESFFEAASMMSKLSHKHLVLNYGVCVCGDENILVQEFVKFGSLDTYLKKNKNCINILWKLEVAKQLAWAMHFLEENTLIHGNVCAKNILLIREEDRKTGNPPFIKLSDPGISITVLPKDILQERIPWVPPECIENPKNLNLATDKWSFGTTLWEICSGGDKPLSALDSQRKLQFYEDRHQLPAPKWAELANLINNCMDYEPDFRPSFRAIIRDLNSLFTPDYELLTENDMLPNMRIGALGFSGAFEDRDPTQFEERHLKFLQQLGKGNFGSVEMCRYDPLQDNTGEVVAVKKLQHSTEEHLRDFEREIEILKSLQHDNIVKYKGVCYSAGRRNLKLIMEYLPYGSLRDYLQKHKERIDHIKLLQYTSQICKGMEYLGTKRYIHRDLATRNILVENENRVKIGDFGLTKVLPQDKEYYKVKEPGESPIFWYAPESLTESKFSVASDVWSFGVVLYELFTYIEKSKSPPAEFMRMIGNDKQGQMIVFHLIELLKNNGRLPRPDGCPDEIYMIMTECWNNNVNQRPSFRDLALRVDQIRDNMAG

With `C[C@H](O)CS(=O)(=O)N[C@H]1C[C@@H](N(C)c2ncnc3[nH]ccc23)C1` (single isomer, unassigned) [IA (M2)], the IC50 in assay [1] was 0.886 µM; in assay [2], over 10 µM; in assay [3] it was 1.21 µM.
For `C[C@@H](O)CS(=O)(=O)N[C@H]1C[C@@H](N(C)c2ncnc3[nH]ccc23)C1` (single isomer, unassigned) [IC (M3)], the 50% inhibitory concentration (IC50) in assay [1] is 2.28 µM; in assay [2], over 10 µM; in assay [3], 3.42 µM.
Taken in the same sequence, the figures for `CN(c1ncnc2[nH]ccc12)[C@H]1C[C@@H](NS(=O)(=O)CCCO)C1` [IB (M1), 3-Hydroxy-N-(cis-3-(methyl(7H-pyrrolo[2,3-d]pyrimidin-4-yl)amino)cyclobutyl)propane-1-sulfonamide] were 1.14 µM, over 10 µM and 3.19 µM.

In general, IC50 refers to the concentration that inhibits the measured activity by half. A lower IC50 goes with higher potency.
